Values after ≈ are worked out from the molar mass of the structure shown. One block for each molecule: values may come before it. Active and inactive are the calls of the source. No cut-off for these calls is given here.
Key:
[1] = Cytotoxicity against human MCF7 cells assessed as reduction in cell viability after 48 hrs by MTT assay; format: toxicity, cell-based
Caenorhabditis elegans [2] = assay: Anthelmintic activity against Caenorhabditis elegans N2 Bristol assessed as lethality on young adult worms at 10 mM incubated for 48 hrs; format: functional, organism-based
Leishmania donovani = assay: Antiprotozoal activity against Leishmania donovani MHOM-ET-67/L82 amastigotes incubated for 72 hrs by microplate reader analysis; format: functional, organism-based; details: MHOM-ET-67/L82, 72 h
Trypanosoma cruzi = assay: Antiprotozoal activity against Trypanosoma cruzi Tulahuen C4 amastigotes measured after 96 hrs by microplate reader analysis; format: functional, organism-based; details: Tulahuen C4, 96 h
Caenorhabditis elegans [3] = assay: Anthelmintic activity against Caenorhabditis elegans N2 Bristol assessed as lethality; format: functional
Caenorhabditis elegans [4] = assay: Anthelmintic activity against Caenorhabditis elegans N2 Bristol assessed as mortality at 10 mM relative to control; format: functional
Caenorhabditis elegans [5] = assay: Anthelmintic activity against Caenorhabditis elegans N2 Bristol assessed as mortality at 40 mM relative to control
Trypanosoma brucei = assay: Antiprotozoal activity against bloodstream form Trypanosoma brucei STIB 900 trypomastigotes […] by microplate reader analysis; format: functional, organism-based
Plasmodium falciparum = assay: Antiprotozoal activity against Plasmodium falciparum NF54 intraerythrocytic forms incubated for 48 hrs by 3H-hypoxanthine incorporation assay; format: functional, organism-based
[6] = Cytotoxicity against rat L6 cells incubated for 72 hrs by Resazurin-dye based assay; format: toxicity, cell-based

SMILES: COC(=O)C1=C2Nc3c(OC)cccc3[C@@]23CCN2C[C@@H]([C@H](C)O)[C@@H]1C[C@H]23
IC50 at 48 h [1]: > 100 µM
Activity (Caenorhabditis elegans [2]): inactive

SMILES: COC(=O)/C1=C/OC2=Nc3c(OC)cccc3[C@@]23CCN2C[C@@H](C(C)=O)[C@@H]1CC23
IC50 at 48 h [1]: > 100 µM

SMILES: COC(=O)C1=C2Nc3c(OC)cccc3[C@@]23CCN2C[C@@H](C(C)=O)[C@@H]1C[C@H]23
IC50 at 48 h [1]: > 100 µM

SMILES: C/C=C1/CN2CC[C@@]34C(=Nc5c(OC)cccc53)O/C=C(/C(=O)OC)[C@H]1CC24
IC50 at 48 h [1]: > 100 µM
Activity (Caenorhabditis elegans [2]): inactive

SMILES: COC(=O)[C@@]1(c2cc3ccccc3[nH]2)COCC=C2CN(C)CC[C@@H]21 [6,7-SECO-ANGUSTILOBINE B]
IC50 at 48 h [1]: > 100 µM

IC50 (Leishmania donovani): 0.26 µg/mL (≈ 0.638 µM)
SMILES: CCCCCCCCCCCCCCCCOP(=O)([O-])OCC[N+](C)(C)C [MILTEFOSINE]

IC50 (Trypanosoma cruzi): 0.69 µg/mL (≈ 2.65 µM)
SMILES: O=C(Cn1ccnc1[N+](=O)[O-])NCc1ccccc1 [BENZNIDAZOLE]

SMILES: COC(=O)[C@@]1(c2cc3ccccc3[nH]2)COC[C@H]2O[C@]23CN(C)CC[C@@H]31
IC50 at 48 h [1]: > 100 µM

SMILES: COC(=O)/C1=C/OC2=Nc3c(OC)cccc3[C@@]23CCN2C[C@@H]([C@H](C)O)[C@@H]1CC23
IC50 at 48 h [1]: > 100 µM
LC50 (Caenorhabditis elegans [3]): 400 µM
mortality at 10000 µM (Caenorhabditis elegans [4]): 100%

SMILES: c1ccc([C@H]2CN3CCSC3=N2)cc1 [LEVAMISOLE]
mortality at 40000 µM (Caenorhabditis elegans [5]): 71%

IC50 (Trypanosoma brucei): 20 µg/mL (≈ 58.8 µM)
IC50 (Trypanosoma cruzi): > 100 µg/mL
IC50 (Leishmania donovani): 75 µg/mL (≈ 220 µM)
IC50 (Plasmodium falciparum): 2.4 µg/mL (≈ 7.05 µM)
SMILES: C=CC12OC[C@@]3(C(=O)OC)c4[nH]c5ccccc5c4C1NCCC23O
IC50 at 72 h [6]: 50 µg/mL (≈ 147 µM)
IC50 at 48 h [1]: > 100 µM

SMILES: C=C[C@@]12CN3CC[C@]1(O)[C@@](C(=O)OC)(CO2)c1[nH]c2ccccc2c1C3
IC50 at 48 h [1]: 26 µM
Activity (Caenorhabditis elegans [2]): inactive

Reference: ChEMBL document CHEMBL5344423, “Alstoboonine, an Ulean-Type Indole Alkaloid from Alstonia boonei Leaves” (J Nat Prod, 2024)
